Data as given in the kinase profiling compilation of Christmann-Franck et al. (2016).

Key:
Experiment in all cases: KINOMEscan competition binding
Conditions in all cases: compound 0.5 µM
PRKAA1 (human) = PRKAA1 (human) (UniProt Q13131)
MYO3A (human) = MYO3A (human) (UniProt Q8NEV4)
CaMK1 (human) = CaMK1 (human) (UniProt Q14012)
AURKB (human) = AURKB (human) (UniProt Q96GD4)
PIP4K2B (human) = PIP4K2B (human) (UniProt P78356)
PDPK1 (human) = PDPK1 (human) (UniProt O15530)
CAMKK1 (human) = CAMKK1 (human) (UniProt Q8N5S9)
CHUK (human) = CHUK (human) (UniProt O15111)
CSNK1A1L (human) = CSNK1A1L (human) (UniProt Q8N752)
STK38 (human) = STK38 (human) (UniProt Q15208)
IRAK4 (human) = IRAK4 (human) (UniProt Q9NWZ3)
[1] = system: BRAF (human), P15056 [V600E]
CDK4 CCND3 (human) = CDK4 CCND3 (human) (UniProt P11802+P30281)
PAK6 (human) = PAK6 (human) (UniProt Q9NQU5)
MAP3K10 (human) = MAP3K10 (human) (UniProt Q02779)
AKT2 (human) = AKT2 (human) (UniProt P31751)
[2] = system: KIT (human), P10721 [A829P]
GRK1 (human) = GRK1 (human) (UniProt Q15835)
FGFR3 (human) = FGFR3 (human) (UniProt P22607)
SIK2 (human) = SIK2 (human) (UniProt Q9H0K1)
MAPK11 (human) = MAPK11 (human) (UniProt Q15759)
MAPK14 (human) = MAPK14 (human) (UniProt Q16539)
FLT1 (human) = FLT1 (human) (UniProt P17948)
AAK1 (human) = AAK1 (human) (UniProt Q2M2I8)
[3] = target: JAK1 JH1 catalytic (human) (UniProt P23458)
TAOK2 (human) = TAOK2 (human) (UniProt Q9UL54)
ULK1 (human) = ULK1 (human) (UniProt O75385)
PRKG1 (human) = PRKG1 (human) (UniProt Q13976)
NEK5 (human) = NEK5 (human) (UniProt Q6P3R8)
ACVR2A (human) = ACVR2A (human) (UniProt P27037)
RPS6KA4 KD2 (human) = RPS6KA4 KD2 (human) (UniProt O75676)
EPHB2 (human) = EPHB2 (human) (UniProt P29323)
MELK (human) = MELK (human) (UniProt Q14680)
ROS1 (human) = ROS1 (human) (UniProt P08922)
ICK (human) = ICK (human) (UniProt Q9UPZ9)
AXL (human) = AXL (human) (UniProt P30530)
NIM1 (human) = NIM1 (human) (UniProt Q8IY84)
PIK3CD (human) = PIK3CD (human) (UniProt O00329)
MAPK8 (human) = MAPK8 (human) (UniProt P45983)
STK4 (human) = STK4 (human) (UniProt Q13043)
EPHB6 (human) = EPHB6 (human) (UniProt O15197)
RIPK1 (human) = RIPK1 (human) (UniProt Q13546)

TAOK2 (human), sequence (Q9UL54 whole entry, looked up): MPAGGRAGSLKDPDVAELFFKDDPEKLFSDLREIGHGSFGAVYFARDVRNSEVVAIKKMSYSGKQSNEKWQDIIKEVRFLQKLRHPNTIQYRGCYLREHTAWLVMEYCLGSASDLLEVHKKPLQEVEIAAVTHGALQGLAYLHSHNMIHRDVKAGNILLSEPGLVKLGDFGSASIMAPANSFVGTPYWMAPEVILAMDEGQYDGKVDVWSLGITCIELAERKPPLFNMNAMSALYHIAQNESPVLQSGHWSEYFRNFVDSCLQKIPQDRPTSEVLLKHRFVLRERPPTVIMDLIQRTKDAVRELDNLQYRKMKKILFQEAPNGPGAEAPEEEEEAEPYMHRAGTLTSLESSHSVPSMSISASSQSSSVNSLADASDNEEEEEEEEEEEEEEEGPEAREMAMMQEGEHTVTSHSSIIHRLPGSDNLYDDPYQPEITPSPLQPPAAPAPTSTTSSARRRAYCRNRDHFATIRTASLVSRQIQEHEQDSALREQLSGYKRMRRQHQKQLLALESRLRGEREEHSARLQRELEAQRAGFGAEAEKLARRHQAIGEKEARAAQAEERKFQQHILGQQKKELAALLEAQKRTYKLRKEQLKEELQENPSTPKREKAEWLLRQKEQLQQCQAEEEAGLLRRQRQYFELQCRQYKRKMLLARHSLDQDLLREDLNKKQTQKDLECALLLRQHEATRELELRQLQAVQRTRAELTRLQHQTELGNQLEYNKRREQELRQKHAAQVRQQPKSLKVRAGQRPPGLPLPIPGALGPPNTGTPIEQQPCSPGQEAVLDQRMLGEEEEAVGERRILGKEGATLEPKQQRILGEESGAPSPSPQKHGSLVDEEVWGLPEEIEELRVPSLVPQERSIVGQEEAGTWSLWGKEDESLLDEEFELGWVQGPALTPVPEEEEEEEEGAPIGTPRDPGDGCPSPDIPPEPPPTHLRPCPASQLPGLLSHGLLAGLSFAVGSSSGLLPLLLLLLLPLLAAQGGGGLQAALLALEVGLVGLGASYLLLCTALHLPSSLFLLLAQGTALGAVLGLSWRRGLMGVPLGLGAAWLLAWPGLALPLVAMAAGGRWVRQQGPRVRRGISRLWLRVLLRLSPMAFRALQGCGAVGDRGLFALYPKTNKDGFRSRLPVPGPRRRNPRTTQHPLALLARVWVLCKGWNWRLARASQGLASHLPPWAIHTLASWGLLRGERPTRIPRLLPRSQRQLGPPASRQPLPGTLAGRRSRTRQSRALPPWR
PRKG1 (human), sequence (Q13976 whole entry, looked up): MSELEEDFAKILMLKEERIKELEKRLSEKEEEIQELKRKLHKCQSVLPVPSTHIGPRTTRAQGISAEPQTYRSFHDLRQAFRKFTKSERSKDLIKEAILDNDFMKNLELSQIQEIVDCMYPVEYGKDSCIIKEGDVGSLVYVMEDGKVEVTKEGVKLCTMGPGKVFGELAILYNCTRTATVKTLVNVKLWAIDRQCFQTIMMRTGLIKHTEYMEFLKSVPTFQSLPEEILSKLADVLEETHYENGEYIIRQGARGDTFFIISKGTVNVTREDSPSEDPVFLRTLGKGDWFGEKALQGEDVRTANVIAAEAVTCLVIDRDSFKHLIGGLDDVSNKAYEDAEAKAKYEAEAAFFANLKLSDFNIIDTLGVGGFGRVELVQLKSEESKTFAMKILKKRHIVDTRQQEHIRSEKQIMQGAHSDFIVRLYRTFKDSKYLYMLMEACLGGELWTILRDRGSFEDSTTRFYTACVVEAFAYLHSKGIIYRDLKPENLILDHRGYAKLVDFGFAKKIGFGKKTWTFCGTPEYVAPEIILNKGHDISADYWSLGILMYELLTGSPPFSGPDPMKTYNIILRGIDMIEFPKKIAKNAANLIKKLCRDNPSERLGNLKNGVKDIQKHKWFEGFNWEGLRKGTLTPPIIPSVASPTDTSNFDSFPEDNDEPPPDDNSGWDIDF
CaMK1 (human), sequence (Q14012 whole entry, looked up): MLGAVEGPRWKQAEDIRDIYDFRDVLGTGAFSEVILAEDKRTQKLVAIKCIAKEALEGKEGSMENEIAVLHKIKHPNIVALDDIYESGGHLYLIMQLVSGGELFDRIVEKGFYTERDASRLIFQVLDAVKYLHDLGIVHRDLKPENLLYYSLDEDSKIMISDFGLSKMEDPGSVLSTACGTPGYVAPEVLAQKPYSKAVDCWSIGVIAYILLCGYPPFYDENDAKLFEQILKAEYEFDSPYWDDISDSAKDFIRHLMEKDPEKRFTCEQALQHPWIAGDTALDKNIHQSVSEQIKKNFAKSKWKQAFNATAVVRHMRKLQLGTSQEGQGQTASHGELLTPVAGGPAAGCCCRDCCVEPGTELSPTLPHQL
ACVR2A (human), sequence (P27037 whole entry, looked up): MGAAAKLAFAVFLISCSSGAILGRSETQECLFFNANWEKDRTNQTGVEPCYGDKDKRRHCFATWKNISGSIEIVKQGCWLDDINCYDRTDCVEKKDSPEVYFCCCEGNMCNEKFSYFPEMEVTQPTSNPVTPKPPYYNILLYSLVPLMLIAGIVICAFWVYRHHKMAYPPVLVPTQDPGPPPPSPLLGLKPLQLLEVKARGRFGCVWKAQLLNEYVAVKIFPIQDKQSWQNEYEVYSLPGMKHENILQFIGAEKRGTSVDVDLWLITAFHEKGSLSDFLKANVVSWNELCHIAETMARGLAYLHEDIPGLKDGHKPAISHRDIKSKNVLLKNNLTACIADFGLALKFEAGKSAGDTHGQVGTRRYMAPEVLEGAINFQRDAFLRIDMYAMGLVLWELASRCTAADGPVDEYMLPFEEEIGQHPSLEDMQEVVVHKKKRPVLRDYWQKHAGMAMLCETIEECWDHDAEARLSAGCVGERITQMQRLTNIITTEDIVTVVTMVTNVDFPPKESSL
ULK1 (human), sequence (O75385 whole entry, looked up): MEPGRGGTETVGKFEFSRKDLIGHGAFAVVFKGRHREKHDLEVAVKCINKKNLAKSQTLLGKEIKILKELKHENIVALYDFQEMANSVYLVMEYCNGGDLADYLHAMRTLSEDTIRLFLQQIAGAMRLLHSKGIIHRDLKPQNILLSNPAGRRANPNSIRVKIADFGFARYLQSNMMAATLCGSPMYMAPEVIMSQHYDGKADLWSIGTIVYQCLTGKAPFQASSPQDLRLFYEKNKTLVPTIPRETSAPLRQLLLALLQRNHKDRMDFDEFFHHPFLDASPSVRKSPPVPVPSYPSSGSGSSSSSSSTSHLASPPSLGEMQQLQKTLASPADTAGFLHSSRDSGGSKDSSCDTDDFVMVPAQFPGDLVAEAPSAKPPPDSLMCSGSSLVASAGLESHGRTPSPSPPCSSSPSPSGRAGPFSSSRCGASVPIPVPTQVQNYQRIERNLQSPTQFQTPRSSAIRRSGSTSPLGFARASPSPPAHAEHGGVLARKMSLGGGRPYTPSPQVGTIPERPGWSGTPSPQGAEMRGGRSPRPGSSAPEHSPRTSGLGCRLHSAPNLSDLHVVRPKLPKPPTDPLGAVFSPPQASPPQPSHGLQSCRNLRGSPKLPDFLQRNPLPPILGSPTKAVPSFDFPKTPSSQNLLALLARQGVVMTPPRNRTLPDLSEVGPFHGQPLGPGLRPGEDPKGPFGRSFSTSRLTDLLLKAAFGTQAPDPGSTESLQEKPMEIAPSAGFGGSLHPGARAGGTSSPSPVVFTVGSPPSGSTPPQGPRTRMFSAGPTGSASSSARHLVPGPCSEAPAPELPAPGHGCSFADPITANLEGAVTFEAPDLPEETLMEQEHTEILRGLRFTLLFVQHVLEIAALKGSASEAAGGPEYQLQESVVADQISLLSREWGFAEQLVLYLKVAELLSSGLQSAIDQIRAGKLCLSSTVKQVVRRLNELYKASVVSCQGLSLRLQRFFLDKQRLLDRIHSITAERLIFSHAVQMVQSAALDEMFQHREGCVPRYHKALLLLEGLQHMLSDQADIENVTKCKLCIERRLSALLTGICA
PDPK1 (human), sequence (O15530 whole entry, looked up): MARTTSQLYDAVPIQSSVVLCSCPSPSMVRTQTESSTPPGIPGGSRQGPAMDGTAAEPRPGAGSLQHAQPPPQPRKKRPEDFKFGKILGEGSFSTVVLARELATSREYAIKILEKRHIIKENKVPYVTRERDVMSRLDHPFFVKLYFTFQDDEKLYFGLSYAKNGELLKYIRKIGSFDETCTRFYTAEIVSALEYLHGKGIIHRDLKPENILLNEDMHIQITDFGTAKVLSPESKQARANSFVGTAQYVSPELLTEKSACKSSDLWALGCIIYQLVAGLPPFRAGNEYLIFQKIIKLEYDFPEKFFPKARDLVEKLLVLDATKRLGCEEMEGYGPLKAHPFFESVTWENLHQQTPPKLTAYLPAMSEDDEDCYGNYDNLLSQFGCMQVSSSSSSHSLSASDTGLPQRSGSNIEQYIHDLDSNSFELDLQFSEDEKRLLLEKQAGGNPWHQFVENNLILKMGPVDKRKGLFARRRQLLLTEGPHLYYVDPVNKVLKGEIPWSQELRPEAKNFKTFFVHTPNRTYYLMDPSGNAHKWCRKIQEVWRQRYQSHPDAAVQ
MAPK8 (human), sequence (P45983 whole entry, looked up): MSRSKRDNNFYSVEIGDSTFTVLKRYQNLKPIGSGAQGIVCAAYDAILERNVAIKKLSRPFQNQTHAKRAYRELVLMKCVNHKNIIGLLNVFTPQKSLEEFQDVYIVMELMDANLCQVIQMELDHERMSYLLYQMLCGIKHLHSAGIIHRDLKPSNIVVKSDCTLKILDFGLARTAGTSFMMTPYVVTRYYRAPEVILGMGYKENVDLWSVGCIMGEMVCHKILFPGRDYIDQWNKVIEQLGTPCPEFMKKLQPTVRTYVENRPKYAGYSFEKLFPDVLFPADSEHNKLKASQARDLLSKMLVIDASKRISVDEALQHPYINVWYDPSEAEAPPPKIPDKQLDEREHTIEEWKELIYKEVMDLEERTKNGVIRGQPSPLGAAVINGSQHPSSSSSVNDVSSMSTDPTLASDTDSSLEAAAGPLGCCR

Cn1c2ccccc2c2c3c(c4c5ccccc5n(CCC#N)c4c21)CNC3=O
kinase still bound, per cent of control (PRKAA1 (human)): 59%
kinase still bound, per cent of control (MYO3A (human)): 35%
kinase still bound, per cent of control (CaMK1 (human)): 76%
kinase still bound, per cent of control (AURKB (human)): 32%
kinase still bound, per cent of control (PIP4K2B (human)): 2%
kinase still bound, per cent of control (PDPK1 (human)): 41%
kinase still bound, per cent of control (CAMKK1 (human)): 6.1%
kinase still bound, per cent of control (CHUK (human)): 88%
kinase still bound, per cent of control (CSNK1A1L (human)): 100%
kinase still bound, per cent of control (STK38 (human)): 100%
kinase still bound, per cent of control (IRAK4 (human)): 0.2%
kinase still bound, per cent of control [1]: 92%
kinase still bound, per cent of control (CDK4 CCND3 (human)): 42%
kinase still bound, per cent of control (PAK6 (human)): 1.4%
kinase still bound, per cent of control (MAP3K10 (human)): 98%
kinase still bound, per cent of control (AKT2 (human)): 95%
kinase still bound, per cent of control [2]: 54%
kinase still bound, per cent of control (GRK1 (human)): 15%
kinase still bound, per cent of control (FGFR3 (human)): 97%
kinase still bound, per cent of control (SIK2 (human)): 36%
kinase still bound, per cent of control (MAPK11 (human)): 97%
kinase still bound, per cent of control (MAPK14 (human)): 95%
kinase still bound, per cent of control (FLT1 (human)): 95%
kinase still bound, per cent of control (AAK1 (human)): 0.55%
kinase still bound, per cent of control [3]: 10%
kinase still bound, per cent of control (TAOK2 (human)): 7.7%
kinase still bound, per cent of control (ULK1 (human)): 92%
kinase still bound, per cent of control (PRKG1 (human)): 67%
kinase still bound, per cent of control (NEK5 (human)): 100%
kinase still bound, per cent of control (ACVR2A (human)): 100%
kinase still bound, per cent of control (RPS6KA4 KD2 (human)): 100%
kinase still bound, per cent of control (EPHB2 (human)): 100%
kinase still bound, per cent of control (MELK (human)): 22%
kinase still bound, per cent of control (ROS1 (human)): 1.8%
kinase still bound, per cent of control (ICK (human)): 20%
kinase still bound, per cent of control (AXL (human)): 72%
kinase still bound, per cent of control (NIM1 (human)): 100%
kinase still bound, per cent of control (PIK3CD (human)): 45%
kinase still bound, per cent of control (MAPK8 (human)): 18%
kinase still bound, per cent of control (STK4 (human)): 5.4%
kinase still bound, per cent of control (EPHB6 (human)): 50%
kinase still bound, per cent of control (RIPK1 (human)): 100%
